Consider 2 compounds from ChEMBL document CHEMBL3875218, “Bifunctional conjugates with potent inhibitory activity towards cyclooxygenase and histone deacetylase” (Bioorg Med Chem, 2017).

Test [1] is described as follows: Cytotoxicity against human HeLa cells assessed as cell growth inhibition after 72 hrs by MTT assay. (Tetrazolium assays rely on reduction of a dye to a coloured formazan, in cell work by metabolically active cells.)
Test [2] deals with LNCaP. Nature of the test: Induction of cell cycle arrest in human LNCAP cells assessed as accumulation at G1 phase at 2.5 uM after 24 hrs by propidium iodide staining based FACS analysis (reference value: 69.5%). It counts as functional. (In general: A flow cytometer gives signals particle by particle.)
In test [3] the target is T1, Histone deacetylase 8 (Homo sapiens, UniProt Q9BY41).
T1 sequence (Q9BY41 whole entry): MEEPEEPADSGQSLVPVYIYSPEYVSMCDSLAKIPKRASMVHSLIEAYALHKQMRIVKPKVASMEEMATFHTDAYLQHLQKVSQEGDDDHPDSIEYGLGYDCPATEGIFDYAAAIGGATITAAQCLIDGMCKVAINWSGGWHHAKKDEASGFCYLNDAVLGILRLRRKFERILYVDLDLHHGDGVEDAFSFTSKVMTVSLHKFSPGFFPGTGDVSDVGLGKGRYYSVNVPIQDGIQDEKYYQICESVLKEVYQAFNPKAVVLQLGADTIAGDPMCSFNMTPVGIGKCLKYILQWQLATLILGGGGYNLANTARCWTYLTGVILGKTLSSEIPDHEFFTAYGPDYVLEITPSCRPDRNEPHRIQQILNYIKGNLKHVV
Briefly: Inhibition of HDAC8 (unknown origin) after 2.5 hrs by SAMDI mass spectroscopic analysis.

Test [4] concerns the target T2, Protein deacetylase HDAC6 (Homo sapiens, UniProt Q9UBN7).
T2 sequence (Q9UBN7 whole entry): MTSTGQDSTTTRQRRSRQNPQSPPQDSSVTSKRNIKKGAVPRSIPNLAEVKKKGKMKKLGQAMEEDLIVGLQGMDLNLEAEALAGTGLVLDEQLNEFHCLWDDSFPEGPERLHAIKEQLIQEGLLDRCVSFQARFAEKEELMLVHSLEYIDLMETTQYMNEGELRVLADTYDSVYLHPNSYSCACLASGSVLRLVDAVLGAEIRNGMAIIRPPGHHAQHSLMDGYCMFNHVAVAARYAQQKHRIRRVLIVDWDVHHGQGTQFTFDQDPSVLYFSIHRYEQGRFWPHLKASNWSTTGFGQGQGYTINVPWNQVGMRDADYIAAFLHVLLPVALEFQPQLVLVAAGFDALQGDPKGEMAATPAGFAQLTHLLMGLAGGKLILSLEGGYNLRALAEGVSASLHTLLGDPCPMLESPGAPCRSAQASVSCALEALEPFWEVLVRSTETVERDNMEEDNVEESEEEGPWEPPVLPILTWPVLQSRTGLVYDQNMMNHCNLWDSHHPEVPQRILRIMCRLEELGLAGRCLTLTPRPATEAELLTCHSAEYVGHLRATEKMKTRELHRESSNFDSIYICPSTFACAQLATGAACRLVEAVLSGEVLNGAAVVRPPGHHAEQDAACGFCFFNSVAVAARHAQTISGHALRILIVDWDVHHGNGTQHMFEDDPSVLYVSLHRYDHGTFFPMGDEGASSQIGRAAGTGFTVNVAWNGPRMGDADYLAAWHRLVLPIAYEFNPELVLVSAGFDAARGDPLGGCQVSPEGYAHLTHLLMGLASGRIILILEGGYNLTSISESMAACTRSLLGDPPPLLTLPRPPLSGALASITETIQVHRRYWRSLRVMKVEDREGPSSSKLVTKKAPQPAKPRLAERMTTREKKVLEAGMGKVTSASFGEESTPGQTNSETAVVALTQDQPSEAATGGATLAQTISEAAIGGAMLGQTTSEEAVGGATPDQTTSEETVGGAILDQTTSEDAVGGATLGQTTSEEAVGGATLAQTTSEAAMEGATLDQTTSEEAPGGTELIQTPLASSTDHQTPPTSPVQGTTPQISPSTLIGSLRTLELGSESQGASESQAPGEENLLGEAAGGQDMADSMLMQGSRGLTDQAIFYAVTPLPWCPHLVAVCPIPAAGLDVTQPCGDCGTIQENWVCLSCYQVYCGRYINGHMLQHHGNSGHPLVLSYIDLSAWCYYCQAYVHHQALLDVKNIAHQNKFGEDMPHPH
Nature of the test: Inhibition of HDAC6 (unknown origin) after 20 hrs by SAMDI mass spectroscopic analysis.

Test [5] has as its target T3, Protein deacetylase HDAC6 (Homo sapiens) (UniProt Q9UBN7).
T3 sequence (whole entry): T2 sequence (Q9UBN7 whole entry)
Nature of the test: Inhibition of HDAC6 in human LNCAP cells assessed as acetylated tubulin accumulation in cytosol after 24 hrs by Western blot analysis. It counts as cell-based. On the technique in general: A western blot detects proteins with antibodies after separation by electrophoresis.

In test [6] the target is T4, Prostaglandin G/H synthase 2 (Homo sapiens) (UniProt P35354).
T4 sequence (whole entry): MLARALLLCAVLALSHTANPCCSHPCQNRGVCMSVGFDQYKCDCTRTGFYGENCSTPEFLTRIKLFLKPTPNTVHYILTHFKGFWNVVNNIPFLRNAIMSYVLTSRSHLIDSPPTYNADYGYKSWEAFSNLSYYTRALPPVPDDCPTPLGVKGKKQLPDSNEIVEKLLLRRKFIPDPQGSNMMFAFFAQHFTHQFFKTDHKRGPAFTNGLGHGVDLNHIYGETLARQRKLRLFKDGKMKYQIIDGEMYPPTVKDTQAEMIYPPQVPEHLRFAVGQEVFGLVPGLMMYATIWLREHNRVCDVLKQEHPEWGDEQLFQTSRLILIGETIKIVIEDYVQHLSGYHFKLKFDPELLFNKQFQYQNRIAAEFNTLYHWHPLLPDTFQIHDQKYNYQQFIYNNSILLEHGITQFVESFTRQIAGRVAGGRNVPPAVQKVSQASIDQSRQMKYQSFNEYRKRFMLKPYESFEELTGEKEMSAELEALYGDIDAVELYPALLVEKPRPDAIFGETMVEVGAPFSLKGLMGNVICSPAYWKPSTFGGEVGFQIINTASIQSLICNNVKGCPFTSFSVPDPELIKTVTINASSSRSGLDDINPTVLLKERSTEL
Briefly: Inhibition of recombinant human COX2 at 10 uM using arachidonic acid as substrate preincubated for 15 mins followed by substrate addition for 2 mins by Cayman based fluorescence assay.

The IC50 is the concentration at which inhibition is half-maximal. Broadly, the inhibition is the share of the control response that was lost under treatment. For the compound `COc1ccc2c(c1)c(CC(=O)NCCCCCCC(=O)NO)c(C)n2C(=O)c1ccc(Cl)cc1`, the IC50 in test [1] was found to be 8870 nM; in test [3], 109 nM; in test [4] it was 49 nM. The Activity in test [2] is 62.5%. Moreover, the inhibition result was “Dose-dependent effect” in test [5] and 98.1% in test [6].
Regarding `Cc1ccc(-c2cc(C(F)(F)F)nn2-c2ccc(S(=O)(=O)NCCCCCCC(=O)NO)cc2)cc1`, the values for the IC50 in test [1], in test [3] and in test [4] were 6500 nM, 412 nM and 66 nM, respectively. The Activity in test [2] was determined as 57.4%. The inhibition entry in test [5] was “Dose-dependent effect”; in test [6] it was 100%.
